One experiment has as its system MV4-11 cells. Description: MV4-11 cellular proliferation assay, Assay Format A (CellTiter-Glo, 120 hours). The following applies: Homo sapiens, Assay method A, read-out: MV4-11 antiproliferative IC50. Format: cell-based. The procedure: An MV4-11 proliferation assay was used to test the ability of compounds to reduce cell viability.
After 120 hours of treatment, cells were incubated for 10 min at RT with the CellTiter-Glo (CTG) reagent (G7571, Promega). Measurement of the luminescence signal was performed on a microplate reader (Ensight, PerkinElmer). CTG reagent measures the amount of ATP, which is directly proportional to the number of cells, to determine the number of viable cells in culture.
The data were analysed as follows: Data normalization, N(x) = (x−〈cr〉)/(〈sr〉−〈cr〉) × 100 [formula] where x is the measured raw signal value of a well, (cr) is the median of the measured signal values for the Central Reference (DMSO) wells on a plate, (sr) is the median of the measured signal values for the Scale Reference (reference compound) wells on a plate. Curve fitting, S0 + (Sinf −S0)/(1 + (((AC50)/(10^c)))^n) [formula] where the experimental set-up assumes the Hill parameters in certain ranges: S0 ~ Central Reference (CR) from normalization (= Bottom), Sinf ~ Scale Reference (SR) from normalization (= Top), nHill ~ 1, AC50 ~ within the measured concentration range.
A general note: ATP-based viability assays read luminescence as a measure of living cells.

The next experiment has as its target T1, MLLT1 (Homo sapiens, UniProt Q03111).
T1 construct: endogenous in cells; host or cells: MV4-11 (ATCC CRL-9591)
T1 sequence (Q03111 1-559): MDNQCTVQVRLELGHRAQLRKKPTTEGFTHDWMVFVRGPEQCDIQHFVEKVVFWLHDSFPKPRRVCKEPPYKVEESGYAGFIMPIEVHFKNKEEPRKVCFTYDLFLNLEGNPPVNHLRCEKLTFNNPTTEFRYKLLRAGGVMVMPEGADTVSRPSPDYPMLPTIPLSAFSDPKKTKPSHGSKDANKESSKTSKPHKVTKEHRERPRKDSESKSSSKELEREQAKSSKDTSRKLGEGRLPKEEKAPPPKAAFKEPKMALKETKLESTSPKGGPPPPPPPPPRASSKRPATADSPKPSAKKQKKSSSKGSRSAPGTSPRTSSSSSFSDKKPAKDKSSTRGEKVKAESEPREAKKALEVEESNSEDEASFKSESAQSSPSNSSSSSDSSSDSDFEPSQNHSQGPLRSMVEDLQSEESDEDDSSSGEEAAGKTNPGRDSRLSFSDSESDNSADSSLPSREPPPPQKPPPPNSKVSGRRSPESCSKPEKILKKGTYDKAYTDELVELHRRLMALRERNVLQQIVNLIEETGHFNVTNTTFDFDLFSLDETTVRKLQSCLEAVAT
Description: MLLT1 degradation assay (JESS automated chemiluminescent detection) in MV4-11 cells. The format is cell-based. The settings on record: 24h, with respect to DMSO control. Put shortly:
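MV4-11 cells were treated with 1000, 100 or 10 nM compound (0.1% DMSO) for 24 h at 37 °C. Lysates (4 µg protein) were probed for MLLT1 and GAPDH by JESS capillary chemiluminescence. Degradation was calculated from band peak areas versus DMSO control and binned into categories A–D.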

One may read the IC50 as the midpoint of a concentration-inhibition curve. For orientation: inhibition means how much of the control response was suppressed. A high value points to a response far below the control. Turning to `Cc1nn(CCOCCNc2cccc3c2C(=O)N(C2CCC(=O)NC2=O)C3=O)c2cc(C(=O)Nc3cc4[nH]c([C@H]5CCCN5C)cc4cn3)ccc12` (stereo partly drawn) [Example 26, 1-(2-(2-((2-(2,6-dioxopiperidin-3-yl)-1,3-dioxoisoindolin-4yl)amino)ethoxy)ethyl)-3-methyl-N-(2-((R)-1-methylpyrrolidin-2-yl)-1H-pyrrolo[3,2-c]pyridin-6-yl)-1H-indazole-6-carboxamide], in the experiment on MV4-11 cells, the IC50 is 14 nM. For the same molecule, at MLLT1, the inhibition at 0.1 µM is ≥ 75% and the inhibition at 1 µM is ≥ 75%.
As for `Cc1nn(CCCCCCCCNc2ccc3c(c2)C(=O)N(C2CCC(=O)NC2=O)C3=O)c2cc(C(=O)Nc3cc4[nH]c([C@@H]5CCCN5C)cc4cn3)ccc12` (stereo partly drawn) [Example 15, 1-(8-{[2-(2,6-dioxopiperidin-3-yl)-1,3-dioxoisoindol-5-yl]amino}octyl)-3-methyl-N-{2-[(2S)-1-methylpyrrolidin-2-yl]-1H-pyrrolo[3,2-c]pyridin-6-yl}indazole-6-carboxamide], in the experiment on MV4-11 cells, the IC50 came out at 12 nM. Moreover, on MLLT1, the inhibition at 0.01 µM is < 25%, the inhibition at 0.1 µM was ≥ 75% and the inhibition at 1 µM is ≥ 75%.
`Cc1nn(CCCCCCCCNc2cccc3c2C(=O)N(C2CCC(=O)NC2=O)C3=O)c2cc(C(=O)Nc3cc4[nH]c([C@@H]5CCCN5C)cc4cn3)ccc12` (stereo partly drawn) [Example 4, 1-(8-{[2-(2,6-dioxopiperidin-3-yl)-1,3-dioxoisoindol-4-yl]amino}octyl)-3-methyl-N-{2-[(2S)-1-methylpyrrolidin-2-yl]-1H-pyrrolo [3,2-c]pyridin-6-yl}indazole-6-carboxamide]: on MLLT1, the inhibition at 0.01 µM is < 25%, the inhibition at 0.1 µM is < 25% and the inhibition at 1 µM lay in the range of 50 to 75%.
Turning to `Cc1nn(CCCCCCCC#Cc2cccc(C3CCC(=O)NC3=O)n2)c2cc(C(=O)Nc3cc4[nH]c([C@H]5CCCN5C)cc4cn3)ccc12` (stereo partly drawn) [Example 62, 1-(9-(6-(2,6-dioxopiperidin-3-yl)pyridin-2-yl)non-8-yn-1-yl)-3-methyl-N-(2-((R)-1-methylpyrrolidin-2-yl)-1H-pyrrolo [3,2-c]pyridin-6-yl)-1H indazole-6-carboxamide], at MLLT1, the inhibition at 0.01 µM is 50 to 75%, the inhibition at 0.1 µM lay within 50 to 75% and the inhibition at 1 µM was ≥ 75%.
Consider `Cc1c(C#CCCCCCn2nc(C)c3ccc(C(=O)Nc4cc5[nH]c([C@H]6CCCN6C)cc5cn4)cc32)cccc1C(=O)NC1CCC(=O)NC1=O` (stereo partly drawn) [Example 35, 1-(7-(3-((2,6-dioxopiperidin-3-yl)carbamoyl)-2-methylphenyl)hept-6-yn-1-yl)-3-methyl-N-(2-((R)-1-methylpyrrolidin-2-yl)-1H-pyrrolo[3,2-c]pyridin-6-yl)-1H-indazole-6-carboxamide], for which, at MLLT1, the inhibition at 0.01 µM fell in the range of 25 to 50%, the inhibition at 0.1 µM is < 25% and the inhibition at 1 µM lay within 50 to 75%.
For `Cc1nn(CCCCCCCC#Cc2cccc3c2CN(C2CCC(=O)NC2=O)C3=O)c2cc(C(=O)Nc3cc4[nH]c([C@H]5CCCN5C)c(Cl)c4cn3)ccc12` (stereo partly drawn) [Example 53, N-(3-chloro-2-((R)-1-methylpyrrolidin-2-yl)-1H-pyrrolo[3,2-c]pyridin-6-yl)-1-(9-(2-(2,6-dioxopiperidin-3-yl)-1-oxoisoindolin-4-yl)non-8-yn-1-yl)-3-methyl-1H-indazole-6-carboxamide], in that order: ≥ 75%, ≥ 75% and ≥ 75%.
On the same counts, the results for `Cc1nn(C2CCN(CC#Cc3cccc4c3CN(C3CCC(=O)NC3=O)C4=O)CC2)c2cc(C(=O)Nc3cc4[nH]c([C@H]5CCCN5C)cc4cn3)ccc12` (stereo partly drawn) [Example 68, 1-(1-(3-(2-(2,6-dioxopiperidin-3-yl)-1-oxoisoindolin-4-yl)prop-2-yn-1-yl)piperidin-4-yl)-3-methyl-N-(2-((R)-1-methylpyrrolidin-2-yl)-1H-pyrrolo[3,2-c]pyridin-6-yl)-1H-indazole-6-carboxamide] are ≥ 75%, ≥ 75% and 50 to 75%.
`Cc1nn(CCCCCCCCNc2cccc3c2C(=O)N(C2CCC(=O)NC2=O)C3=O)c2cc(C(=O)Nc3cc4[nH]c([C@H]5CCCN5C)c(Cl)c4cn3)ccc12` (stereo partly drawn) [Example 18, N-(3-chloro-2-((R)-1-methylpyrrolidin-2-yl)-1H-pyrrolo[3,2-c]pyridin-6-yl)-1-(8-((2-(2,6-dioxopiperidin-3-yl)-1,3-dioxoisoindolin-4-yl)amino)octyl)-3-methyl-1H-indazole-6-carboxamide]: at MLLT1, the inhibition at 0.01 µM was ≥ 75%, the inhibition at 0.1 µM was ≥ 75% and the inhibition at 1 µM was ≥ 75%.
Regarding `CN1CCC[C@@H]1c1cc2cnc(NC(=O)c3ccc4c(c3)c(N3CCC(CN5CCN(c6cc7c(cc6F)C(=O)N(C6CCC(=O)NC6=O)C7=O)CC5)CC3)nn4C)cc2[nH]1` (stereo partly drawn) [Example 6, 3-[4-({4-[2-(2,6-dioxopiperidin-3-yl)-6-fluoro-1,3-dioxoisoindol-5-yl]piperazin-1-yl}methyl)piperidin-1-yl]-1-methyl-N-{2-[(2R)-1-methylpyrrolidin-2-yl]-1H-pyrrolo[3,2-c]pyridin-6-yl}indazole-5-carboxamide], at MLLT1, the inhibition at 0.01 µM was in the range of 25 to 50%, the inhibition at 0.1 µM lay in the range of 50 to 75% and the inhibition at 1 µM is ≥ 75%.
For `CCN1CCC[C@@H]1c1cc2cnc(NC(=O)c3ccc4c(C)nn(CCCCCCCC#Cc5cccc6c5CN(C5CCC(=O)NC5=O)C6=O)c4c3)cc2[nH]1` (stereo partly drawn) [Example 48, 1-(9-(2-(2,6-dioxopiperidin-3-yl)-1-oxoisoindolin-4-yl)non-8-yn-1-yl)-N-(2-((R)-1-ethylpyrrolidin-2-yl)-1H-pyrrolo[3,2-c]pyridin-6-yl)-3-methyl-1H-indazole-6-carboxamide], in that order: 25 to 50%, 50 to 75% and ≥ 75%.
For `Cc1nn(CCCCCCCC#Cc2cccc3c2CN(C2CCC(=O)NC2=O)C3=O)c2cc(C(=O)Nc3cc4[nH]c([C@H]5CCCN5C)c(C#N)c4cn3)ccc12` (stereo partly drawn) [Example 66, N-(3-cyano-2-((R)-1-methylpyrrolidin-2-yl)-1H-pyrrolo[3,2-c]pyridin-6-yl)-1-(9-(2-(2,6-dioxopiperidin-3-yl)-1-oxoisoindolin-4-yl)non-8-yn-1-yl)-3-methyl-1H-indazole-6-carboxamide], in that order: ≥ 75%, ≥ 75% and ≥ 75%.
For `Cc1nn(CCOCCCCC#Cc2cccc3c2CN(C2CCC(=O)NC2=O)C3=O)c2cc(C(=O)Nc3cc4[nH]c([C@H]5CCCN5C)cc4cn3)ccc12` (stereo partly shown) [Example 50], in that order: ≥ 75%, ≥ 75% and ≥ 75%.
Regarding `Cc1nn(CCCOCC#Cc2cccc3c2CN(C2CCC(=O)NC2=O)C3=O)c2cc(C(=O)Nc3cc4[nH]c([C@H]5CCCN5C)cc4cn3)ccc12` (stereo partly drawn) [Example 31, 1-(3-((3-(2-(2,6-dioxopiperidin-3-yl)-1-oxoisoindolin-4-yl)prop-2-yn-1-yl)oxy)propyl)-3-methyl-N-(2-((R)-1-methylpyrrolidin-2-yl)-1H-pyrrolo[3,2-c]pyridin-6-yl)-1H-indazole-6-carboxamide], on MLLT1, the inhibition at 0.01 µM was in the range of 25 to 50%, the inhibition at 0.1 µM fell in the range of 50 to 75% and the inhibition at 1 µM was ≥ 75%.
For `Cc1nn(CCCCCCCCNc2cccc3c2C(=O)N(C2CCC(=O)NC2=O)C3=O)c2cc(C(=O)Nc3cc4[nH]c(C5CCCN5C)cc4cn3)ccc12` (racemic) [Example 2, rac-1-(8-{[2-(2,6-dioxopiperidin-3-yl)-1,3-dioxoisoindol-4-yl]amino}octyl)-3-methyl-N-[2-(1-methylpyrrolidin-2-yl)-1H-pyrrolo[3,2-c]pyridin-6-yl]indazole-6-carboxamide], in that order: 50 to 75%, ≥ 75% and ≥ 75%.

(Values after patent publication EP4667466A1, “PROTAC DEGRADERS OF MLLT1 AND/OR MLLT3” (priority 2024, dated 2025).)
